Data on 14 compounds can be found in PubChem BioAssay AID328 (DTP/NCI, 2004).

“And” between values parts separate entries of the source, which are not always exact repeats. Equal entries are not always repeated. Toxic doses and inconclusive results are not listed.

This test relates to BDF1 mice, P388 leukemia ip, median survival T/C. The test is described as follows: NCI In Vivo Anticancer Drug Screen. Data for tumor model P388 Leukemia (intraperitoneal) in B6D2F1 (BDF1) mice. The note with it: endpoint: median survival time, higher = longer survival. The method in brief: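 Mice carrying the transplantable tumour receive compound or vehicle. Survival is followed in each arm, and the treated measure is divided by the vehicle measure.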

The mark [1] stands for this setting: dose: 50.0 mg/kg/injection, schedule: Q01DX009 (ip), vehicle: saline with Tween-80.
The mark [2] stands for this setting: dose: 100.0 mg/kg/injection, schedule: Q01DX009 (ip), vehicle: saline with Tween-80.
The mark [3] stands for this setting: dose: 200.0 mg/kg/injection, schedule: Q01DX009 (ip), vehicle: saline with Tween-80.

As to `c1ccc(-c2nnc3ncccn23)cc1`, the T/C is, setting by setting: under setting [1], 96 % of control; under setting [2], 93 % of control; under setting [3], 93 % of control.

For `Nc1nc(N)c2cc([N+](=O)[O-])ccc2n1`, the T/C runs as follows: under setting [1], 96 % of control; under setting [2], 101 % of control; under setting [3], 99 % of control; (dose: 400.0 mg/kg/injection, schedule: Q01DX009 (ip), vehicle: saline with Tween-80) 95 % of control.

In the case of `CCCCC(/C=C1/CCCCC1=O)CC` (configuration not stated), the T/C is, setting by setting: (dose: 100.0 mg/kg/injection, schedule: Q01DX009 (ip), vehicle: Klucel (hydroxypropylcellulose) (HPC)) 95 % of control; (dose: 100.0 mg/kg/injection, schedule: Q04DX003 (ip), vehicle: Klucel (hydroxypropylcellulose) (HPC)) 104 % of control; (dose: 200.0 mg/kg/injection, schedule: Q01DX009 (ip), vehicle: Klucel (hydroxypropylcellulose) (HPC)) 87 % of control; (dose: 200.0 mg/kg/injection, schedule: Q04DX003 (ip), vehicle: Klucel (hydroxypropylcellulose) (HPC)) 104 % of control; (dose: 400.0 mg/kg/injection, schedule: Q01DX009 (ip), vehicle: Klucel (hydroxypropylcellulose) (HPC)) 91 % of control; (dose: 400.0 mg/kg/injection, schedule: Q04DX003 (ip), vehicle: Klucel (hydroxypropylcellulose) (HPC)) 113 % of control.

For `NC(=O)/C=C/c1c[nH]c2nccnc12`, the T/C is, setting by setting: (dose: 3.12 mg/kg/injection, schedule: Q01DX009 (ip), vehicle: water) 113 % of control; (dose: 3.12 mg/kg/injection, schedule: Q04DX003 (ip), vehicle: water) 106 % of control; (dose: 6.25 mg/kg/injection, schedule: Q01DX009 (ip), vehicle: water) 108 % of control; (dose: 6.25 mg/kg/injection, schedule: Q04DX003 (ip), vehicle: water) 105 % of control and 112 % of control; (dose: 12.5 mg/kg/injection, schedule: Q01DX009 (ip), vehicle: water) 121 % of control; (dose: 12.5 mg/kg/injection, schedule: Q04DX003 (ip), vehicle: water) 104 % of control and 106 % of control. Moreover, the T/C (dose: 25.0 mg/kg/injection, schedule: Q04DX003 (ip), vehicle: water) is 114 % of control.

Take `CCCCCCCCCCCC[N+](C)(C)CCCCCC[N+](C)(C)CCCCCCCCCCCC`: the T/C is 113 % of control (dose: 3.13 mg/kg/injection, schedule: Q01DX009 (ip), vehicle: saline); 116 % of control (dose: 6.25 mg/kg/injection, schedule: Q01DX009 (ip), vehicle: saline); 94 % of control (dose: 12.5 mg/kg/injection, schedule: Q01DX009 (ip), vehicle: saline).

With `CC(=O)OC/C=C(C)/C=C/C=C(C)/C=C/C1=C(C)CCCC1(C)C`, the T/C was 107 % of control (dose: 100.0 mg/kg/injection, schedule: Q01DX010 (ip), vehicle: acetone); 89 % of control (dose: 200.0 mg/kg/injection, schedule: Q01DX010 (ip), vehicle: acetone); 121 % of control (dose: 800.0 mg/kg/injection, schedule: Q01DX010 (ip), vehicle: acetone).

For the compound `C=CC(=O)NC(C)C(=O)O` (configuration not stated), the T/C reads like this: (dose: 50.0 mg/kg/injection, schedule: Q01DX009 (ip), vehicle: saline) 105 % of control; (dose: 100.0 mg/kg/injection, schedule: Q01DX009 (ip), vehicle: saline) 105 % of control; (dose: 200.0 mg/kg/injection, schedule: Q01DX009 (ip), vehicle: saline) 100 % of control.

Consider `CCCCCCCCCCN1CCOCCOCCN(CCCCCCCCCC)CCOCCOCC1`, for which the T/C is 113 % of control (dose: 1.56 mg/kg/injection, schedule: Q01DX005 (ip), vehicle: saline with Tween-80); 103 % of control (dose: 3.13 mg/kg/injection, schedule: Q01DX005 (ip), vehicle: saline with Tween-80); 113 % of control (dose: 6.25 mg/kg/injection, schedule: Q01DX005 (ip), vehicle: saline with Tween-80).

Regarding `CC(=O)OCC(=O)[C@@]1(O)CC[C@H]2[C@@H]3CCC4=CC(=O)CC[C@]4(C)[C@@]3(F)[C@@H](O)C[C@@]21C`, the T/C (dose: 50.0 mg/kg/injection, schedule: Q01DX009 (sc), vehicle: steriod suspending solution) is 104 % of control; the T/C (dose: 100.0 mg/kg/injection, schedule: Q01DX009 (sc), vehicle: steriod suspending solution) is 104 % of control; the T/C (dose: 100.0 mg/kg/injection, schedule: Q04DX003 (sc), vehicle: steriod suspending solution) is 115 % of control; the T/C (dose: 200.0 mg/kg/injection, schedule: Q04DX003 (sc), vehicle: steriod suspending solution) is 115 % of control.

For `CNC(=N)c1ccc(NC(=N)c2ccc(NC(=O)Nc3ccc(C(=N)Nc4ccc(C(=N)NC)cc4)cc3)cc2)cc1`, the T/C was 216 % of control (dose: 6.0 mg/kg/injection, schedule: Q01DX009 (ip), vehicle: saline with Tween-80); 172 % of control and 214 % of control (dose: 8.0 mg/kg/injection, schedule: Q01DX009 (ip), vehicle: saline with Tween-80); 241 % of control and 204 % of control and 214 % of control (dose: 12.0 mg/kg/injection, schedule: Q01DX009 (ip), vehicle: saline with Tween-80); 122 % of control (dose: 12.5 mg/kg/injection, schedule: Q04DX003 (ip), vehicle: saline with Tween-80).

Regarding `NN(C(=O)c1ccccc1)c1ccccc1`, the T/C runs as follows: (dose: 12.5 mg/kg/injection, schedule: Q04DX003 (ip), vehicle: Klucel (hydroxypropylcellulose) (HPC)) 100 % of control; (dose: 25.0 mg/kg/injection, schedule: Q01DX009 (ip), vehicle: Klucel (hydroxypropylcellulose) (HPC)) 110 % of control; (dose: 25.0 mg/kg/injection, schedule: Q04DX003 (ip), vehicle: Klucel (hydroxypropylcellulose) (HPC)) 100 % of control; (dose: 50.0 mg/kg/injection, schedule: Q01DX009 (ip), vehicle: Klucel (hydroxypropylcellulose) (HPC)) 100 % of control; (dose: 50.0 mg/kg/injection, schedule: Q04DX003 (ip), vehicle: Klucel (hydroxypropylcellulose) (HPC)) 104 % of control; (dose: 75.0 mg/kg/injection, schedule: Q04DX003 (ip), vehicle: Klucel (hydroxypropylcellulose) (HPC)) 104 % of control. Moreover, the T/C (dose: 115.0 mg/kg/injection, schedule: Q04DX003 (ip), vehicle: Klucel (hydroxypropylcellulose) (HPC)) is 104 % of control; the T/C (dose: 170.0 mg/kg/injection, schedule: Q04DX003 (ip), vehicle: Klucel (hydroxypropylcellulose) (HPC)) is 109 % of control; the T/C (dose: 255.0 mg/kg/injection, schedule: Q04DX003 (ip), vehicle: Klucel (hydroxypropylcellulose) (HPC)) was 105 % of control; the T/C (dose: 385.0 mg/kg/injection, schedule: Q04DX003 (ip), vehicle: Klucel (hydroxypropylcellulose) (HPC)) was 110 % of control.

For `CC1=C(O)/C(=C\C(C)CCCC(C)/C=C/C=C(\C)CCCc2ccoc2)OC1=O` (configuration not stated), the T/C (dose: 5.0 mg/kg/injection, schedule: Q01DX009 (ip), vehicle: other) is 98 % of control; the T/C (dose: 10.0 mg/kg/injection, schedule: Q01DX009 (ip), vehicle: other) is 96 % of control; the T/C (dose: 20.0 mg/kg/injection, schedule: Q01DX009 (ip), vehicle: other) is 97 % of control.

`C=CC12COC(=O)C(=C)C1C1OC(=O)C(=C)C1C(O)C2` (configuration not stated): the T/C is, setting by setting: (dose: 1.0 mg/kg/injection, schedule: Q01DX009 (ip), vehicle: water) 118 % of control; (dose: 2.0 mg/kg/injection, schedule: Q01DX009 (ip), vehicle: water) 109 % of control; (dose: 4.6 mg/kg/injection, schedule: Q01DX010 (ip), vehicle: carboxymethylcellulose (CMC)) 115 % of control; (dose: 8.0 mg/kg/injection, schedule: Q01DX009 (ip), vehicle: water) 113 % of control; (dose: 10.0 mg/kg/injection, schedule: Q01DX009 (ip), vehicle: saline + alcohol) 122 % of control; (dose: 125.0 micrograms/kg/injection, schedule: Q01DX010 (ip), vehicle: carboxymethylcellulose (CMC)) 95 % of control. The T/C is 95 % of control (dose: 250.0 micrograms/kg/injection, schedule: Q01DX010 (ip), vehicle: carboxymethylcellulose (CMC)); 100 % of control (dose: 500.0 micrograms/kg/injection, schedule: Q01DX010 (ip), vehicle: carboxymethylcellulose (CMC)); 104 % of control (dose: 1000.0 micrograms/kg/injection, schedule: Q01DX010 (ip), vehicle: carboxymethylcellulose (CMC)); 104 % of control (dose: 2000.0 micrograms/kg/injection, schedule: Q01DX010 (ip), vehicle: carboxymethylcellulose (CMC)); 100 % of control (dose: 4000.0 micrograms/kg/injection, schedule: Q01DX010 (ip), vehicle: carboxymethylcellulose (CMC)).

Regarding `OCCSc1ncc2cnccn12`, the T/C was 109 % of control (dose: 100.0 mg/kg/injection, schedule: Q04DX003 (ip), vehicle: water); 109 % of control (dose: 200.0 mg/kg/injection, schedule: Q04DX003 (ip), vehicle: water); 109 % of control (dose: 400.0 mg/kg/injection, schedule: Q04DX003 (ip), vehicle: water).
